In patent publication US9694087B2, “Development of novel macromolecule transduction domain with improved cell permeability and method for using same” (priority 2011, dated 2017):
Where a SMILES comes first, the peptide text is derived from it. Where no end group is shown, it is not given here. The star is where a group is joined. X1 = O=C(C=Cc1ccc(O)cc1)*

Legend:
[1] = tested on: human skin; experiment: Primary stimulus test using human skin (patch test); assay type: in vivo; conditions: overall evaluation from Table 4
Protocol: To confirm safety of the modified MTD (M1067) synthesized in Example 4, the modified MTD (M1067)-coumaric acid and the modified MTD (M1067)-acetyl pentapeptide synthesized in Examples 12-1 and 12-2, a primary stimulus test using human skin was performed. The test was conducted by a specialized clinical research organization, Dermapro, and the clinical composition was prepared as will be described below. 30 or more subjects meeting standards for the clinical test and not falling under exclusion standards were selected. Sample materials were applied to backs of the subjects, and removed after 48 hours. The test sites were observed 30 minutes and 24 hours later, after the removal.
The skin evaluation was performed by the Frosch & Kligman method (Frosch P. J and Kligman A. M. J Am Acad Dermatol, 1(1):35-41 (1979)) and standards shown in Table 3 reflecting the Cosmetic, Toiletry, and Fragrance Association (CTFA) guidelines (The Cosmetic, Toiletry and Fragrance Association, Inc. Washington, D.C. 20005 (1981)), average degrees of reaction after 48 and 72 hours were compared, and results were determined based on the average degree of reaction of each composition.

[2] = tested on: HeLa cells; experiment: Visible cell permeability by confocal microscopy, cervix adenocarcinoma cells; assay type: cell-based, human; conditions: 5 μM, 1 hour, FIG. 10
Protocol: Cell permeability of HeLa cells (HeLa cell, Human cervix adenocarcinoma, Cat No. CCL-2, ATCC, USA) derived from Human cervix adenocarcinoma as cancer-derived cells was compared using a confocal microscope (Carl Zeisse, Germany).
Particularly, before a test, the HeLa cells were cultured in a 12-well culture plate with a glass cover slip for 24 hours. The HeLa cells were cultured in a DMEM medium containing 10% fetal bovine serum (FBS), and 1% penicillin/streptomycin (10,000 units penicillin and 10,000 μg/mL streptomycin, invitrogen), in a humidified atmosphere with 5% CO2 at 37° C. After 5 μM of peptides was treated to the […] for 1 hour, the cells were fixed with 4% paraformaldehyde (PFA) at room temperature for 20 minutes to observe the cell permeability using a confocal microscope.
To directly detect internalized MTD-FITC, the cells were washed three times with phosphoric acid buffer and 5 μM of 4′,6-diamidino-2-phenylindole (DAPI), which is a nucleus fluorescence staining solution, was counter-stained. […] In addition, an original form of the cell was observed using a nomarski filter with a confocal microscope, and FITC fluorescence and DAPI fluorescence were observed using a filter suitable for a fluorochrome.

[3] = tested on: ICR mice; experiment: In vivo epithelial tissue (skin) permeability by confocal microscopy; set-up: species or system mouse; conditions: FITC-labelled, applied on gauze to back skin, 1, 3, 6 and 12 hours; FIG. 12
Protocol: After 1, 3, 6, and 12 hours, the mice were sacrificed by cervical dislocation, and skin at the drug-applied parts was extracted. Afterward, the skin was put in 4% paraformaldehyde for 24 hours to fix a tissue and then prepared in a 6 μm cryosection to form a slide. […] The stained tissue was washed again three times with PBS buffer for 10 minutes, fixed with mounting media, and observed by confocal microscopy.

Row | Compound | evaluation in the human skin primary stimulus test [1] | intracellular localization of the FITC-peptide [2] | epithelial permeation [3]
1 | CSCC[C@H](NC(=O)[C@H](CCCNC(=N)N)NC(=O)[C@H](C)NC(=O)[C@H](C)NC(=O)[C@H](C)NC(=O)[C@@H]1CCCN1C(=O)[C@H](C)NC(=O)[C@@H](NC(=O)[C@H](C)NC(=O)[C@H](C)NC(=O)C=Cc1ccc(O)cc1)C(C)C)C(=O)O [modified MTD (M1067)-coumaric acid] (X1-AAVAPAAARM-OH) | low-stimuli materials |  | 
2 | M1103: modified MTD having an amino acid sequence of SEQ. ID. NO: 17 (MRLALPVLLLA; MTD 1103 Amino Acid Sequence) |  | apparently distributed into a cytoplasm | 
3 | GRKKRRQRRR (also: FITC label, place not given here) [Tat, used FITC-labelled, reference compound] |  | attached to an outside of the cell membrane | epithelial permeation was not induced
4 | CSCC[C@H](N)C(=O)N[C@@H](CCCNC(=N)N)C(=O)N[C@@H](C)C(=O)N[C@@H](C)C(=O)N[C@@H](C)C(=O)N1CCC[C@H]1C(=O)N[C@@H](C)C(=O)N[C@H](C(=O)N[C@@H](C)C(=O)N[C@@H](C)C(=O)O)C(C)C [M1067] (H-MRAAAPAVAA-OH) | low-stimuli materials |  | 
5 | Met Arg Ala Ala Ala Pro Ala Val Ala Ala Lys*Ther Ther Lys Ser [modified MTD (M1067)-acetyl pentapeptide] | low-stimuli materials |  | 
